Laboratory results reported in paper PMC8864869, “A short peptide derived from pigment epithelial-derived factor exhibits an angioinhibitory effect” (BMC Ophthalmology, 2022).

Experiments:
[1] = tested on: VEGF-induced corneal neovascularization; test: Mouse corneal micropocket assay; assay type: in vivo; details: C57BL/6 mice, pellet with 200 ng VEGF + 2.5 μg 7-mer, day 7
Procedure: The assay was performed according to procedures described previously. Briefly, corneal micropockets were created in 6-week-old C57BL/6 mice with the needle of 1-ml injector. A micropellet of sucrose aluminum sulfate and hydron polymer containing 200 ng VEGF, with or without 2.5 μg 7-mer peptide, was delivered into each corneal pocket. Eyes were photographed by a slit-lamp biomicroscope on day 7 after micropellet implantation. Ingrowth of the blood vessels into the avascular cornea, towards the pellet, was scored as a positive response. The results are reported as the fraction of positive corneas of the total implanted.
(§1) Fig. 6 The effect of the 7-mer on VEGF-induced microvessel sprouting of aortic ring and corneal neovascularization. a Rat aortic ring assay. Photomicrographs of aortic ring explants after treatment for 5 days (magnification × 40). Sprouting was evaluated on a scale from 0 (no sprouts) to 3 (profuse sprouting). There was no sprouting of vessels from ex vivo aortic rings embedded in Matrigel without LSGS or VEGF. b The 7-mer inhibits VEGF-induced corneal angiogenesis in C57BL/6 mice. Representative corneas and final scoring determining the number of positive corneas per total implantations. […]

HUVECs [2] = test: Annexin V-FITC apoptosis assay in HUVECs; assay type: cell-based, human; details: 20 ng/ml VEGF + peptide (20 μM), 0.5% FBS, 16 h; four independent experiments
Procedure: (§2) Cells were grown in Medium 200 with LSGS (supplement contains 1.9% fetal bovine serum, 3 ng/ml bFGF, 10 μg/ml heparin, 1 μg/ml hydrocortisone, and 10 ng/ml EGF). Culture plates were coated with 2% gelatin. Cells (passages 4–8) were cultured at 37 °C in a humidified atmosphere of 5% CO2. For peptide treatment, HUVECs were cultured in low serum (0.5% FBS) medium containing 20 ng/ml VEGF and 7-mer peptide (20 μM, unless otherwise specified).
Cell apoptosis was examined using a TACS annexin V-FITC kit according to the manufacturer’s instructions for in situ staining. The cell numbers were monitored by counterstaining with Hoechst 33342. Afterward, apoptosis was examined and photographed by a Zeiss epifluorescence microscope (× 100, 10 fields/sample). Images were recorded on Zeiss software.
(§3) The experiment was repeated three times. Magnification is × 40. b The 7-mer induces HUVEC apoptosis in the presence of VEGF. Cell apoptosis was analyzed using the Annexin V-FITC Apoptosis Detection kit according to the in situ staining protocol after treatment for 16 h. Double staining with an annexin V-FITC and the fluorescent dye Hoechst 33342 was used to visualize the apoptotic cells (green) and nuclei (blue), respectively. A representative result of four independent experiments is shown. The percentages of apoptotic cells were quantified. ^aP < 0.005 versus VEGF-treated cells

HUVECs [3] = test: Endothelial cell capillary-like tube formation assay; assay type: cell-based, human; details: 20 ng/ml VEGF, 10 μM 7-mer, matrigel, 0.5% FBS, 6 h
Procedure: as §2
Growth factor-reduced matrigel was pipetted into pre-chilled 24-well plates (150 μl matrigel per well) and polymerized for 45 min at 37 °C. HUVECs (4 × 10^4 per well) in low serum (0.5% FBS) medium were treated with 20 ng/ml VEGF and 7-mer (10 μM) in matrigel coated plates. After 6 h of incubation, tubular structures were photographed. Images were captured using a Cannon camera on a Zeiss inverted microscope with magnification × 40.
as §3, with “A representative result of four independent experiments is shown.” left out

rat aortic ring = test: Rat aortic ring assay; details: 100 μM 7-mer, 5 days
Procedure: Thoracic aortas were removed from euthanized 10-week-old male Sprague Dawley rats and gently stripped of periaortic fibroadipose tissue. Aortas were sectioned into ~ 1 mm length rings, being manipulated in Medium 200. Matrigel (120 μl) mixed with 24 μl LSGS, 72 μl medium, 200 ng/ml VEGF and 100 μM 7-mer was used to embed the aortic ring and then polymerized in 12-well plates (37 °C for 30 min). Subsequently, 1 ml culture medium supplemented with 100 units/ml penicillin, and […] was added. The cultures were propagated at 37 °C in a humidified incubator for up to 5 days. Sprouts were recorded using an inverted microscope platform (Leica DMI6000B) with bright-field optics. Each ring was scored by three independent observers on a scale 0–3, depending on the degree of vessel sprouting observed (0 = no sprouting, 3 = profuse sprouting).
as §1, with “mice.” for “mice. Representative corneas and final scoring determining the number of positive corneas per total implantations.”

[4] = tested on: p53, Bax, p21, cleaved caspase-3; test: Western blot of p53, Bax, p21 and cleaved caspase-3 in RPMI8226 cells; assay type: cell-based, human
Excerpt: (§4) Cell lysis and SDS–PAGE were as described previously. Antibodies used in this study were for active p38 MAPK and active JNK (Promega, Madison, WI), p38 MAPK/SAPK2, JNK (Upstate Biotechnology, Lake Placid, NY), p53 (Chemicon, Temecula, CA), bax, p21, cleaved caspase-3 and β-actin (Abcam Ltd., Cambridge, UK). Proteins of interest were detected using the appropriate IgG-horseradish peroxidase-linked secondary antibody (Santa Cruz Biotechnology) and enhanced chemiluminescence reagent (Amersham, Arlington Heights, IL). X-ray films were scanned on a model GS-700 Imaging Densitometer (Bio-Rad, Hercules, CA) and analyzed with Labworks 4.0 software. For quantification, blots from at least three independent experiments were used.
Fig. 4 The 7-mer induces JNK signaling to trigger p53/bax/p21^Waf1 expression in RPMI8226 cells. a and b Cell treatments were as described in Fig. 3. Cell lysates were then prepared for western blot analysis of p53, Bax, and p21. Representative blots and densitometric analyses from three independent experiments are shown. ^*P < 0.001 versus 7-mer-treated cells

p38 MAPK = test: Western blot of phosphorylated p38 MAPK in RPMI8226 cells; assay type: cell-based, human; details: 10 ng/ml VEGF + 25 μM 7-mer, time course
Excerpt: as §4
Fig. 3 The 7-mer induces JNK signaling to trigger RPMI8226 cell apoptosis. […] Antibodies were then stripped and the blots were re-incubated with anti-JNK and anti-p38 MAPK antibodies (lower panels), respectively, to detect the levels of total JNK and p38 MAPK. b Densitometric analyses from three independent experiments are shown. c Cell were pretreated with 10 μM SP600125 or SB203580 for 10 min and then treated as described above for 24 h and apoptosis was quantified using the annexin V-FITC apoptosis detection kit. *P < 0.0001 versus 7-mer-treated cells

[5] = 7-mer for 8 h, VEGF-treated RPMI8226 cells, densitometry, three independent experiments

7-mer: PEDF Asp64-Ser70, N-acetylated, C-amidated (Ac-DLYRVRS-NH2; UniProt P36955 64-70, looked up, fragment)
VEGF-induced neovessels in the corneas [1]: prevented by the 7-mer
Positive Corneas /Total ([1]; vehicle 10/12): 0/8
apoptotic HUVECs (annexin V-FITC) (HUVECs [2]): 43.0 ± 5.5%
VEGF-stimulated tube-like network of HUVECs (HUVECs [3]): marked decrease of the VEGF-stimulated tube-like network
VEGF-induced outgrowth of sprouts from aortic rings (rat aortic ring; 200 ng/ml VEGF, P = 0.001): this outgrowth was suppressed
sprouts of aortic rings exposed to LSGS and VEGF (rat aortic ring; LSGS + 200 ng/ml VEGF): blocked by the 7-mer
Bax protein level compared to solvent control [4, 5]: 4.5 ± 0.40 fold
p21Waf1 protein level compared to solvent control [4, 5]: 5.5 ± 0.43 fold
p53 protein level compared to solvent control [4, 5]: 3.6 ± 0.39 fold
cleaved/active caspase-3 ([4]; 7-mer treatment for 24 h): elevation of cleaved/active caspase-3
p38 MAPK phosphorylation (p38 MAPK): no significant effect on p38 MAPK phosphorylation
